PMC8330742, “New benzothieno[2,3-c]pyridines as non-steroidal CYP17 inhibitors: design, synthesis, anticancer screening, apoptosis induction, and in silico ADME profile studies” (Journal of Enzyme Inhibition and Medicinal Chemistry, 2021)
pIC50: −log10 of the molar value.

What was measured:
Assay in all cases: NCI-60 SRB screen;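 on pIC50: half-maximal inhibitory concentration read as cell viability unlike GI50 net growth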
MOLT-4 = assay type: cell-based; details: MOLT-4; five dose
SF-295 = assay type: cell-based, human; details: SF-295
SK-MEL-28 = assay type: cell-based; details: SK-MEL-28
NCI-H460 = assay type: cell-based, human; details: NCI-H460
TK-10 = assay type: cell-based, human; details: TK-10
LOX IMVI = assay type: cell-based, human
SF-268 = assay type: cell-based, human; details: SF-268
HCT-15 = assay type: cell-based, human; details: HCT-15
IGROV1 = assay type: cell-based, human; details: IGROV1
NCI-H226 = assay type: cell-based, human; details: NCI-H226
HT-29 = assay type: cell-based
SK-MEL-5 = assay type: cell-based, human; details: SK-MEL-5
HCC-2998 = assay type: cell-based, human; details: HCC-2998
M14 = assay type: cell-based, human; details: M14
KM12 = assay type: cell-based, human; details: KM12
SW-620 = assay type: cell-based; details: SW-620
EKVX = assay type: cell-based, human
786-0 = assay type: cell-based; details: 786-0
SN12C = assay type: cell-based, human; details: SN12C
NCI-H522 = assay type: cell-based, human; details: NCI-H522
NCI-H322M = assay type: cell-based, human
UACC-62 = assay type: cell-based, human; details: UACC-62
ACHN = assay type: cell-based
[1] = Homo sapiens, single dose 10^−5 M, read-out: Growth inhibition (%)
[2] = Homo sapiens, IGROV-1, five dose
[3] = Homo sapiens, HT-29, HT29, five dose

Q: Which results are given for `N#CC1C(=O)NC(c2ccccc2[N+](=O)[O-])c2sc3c(F)cccc3c21` (stereo not shown) [Compound 5c, 4-Cyano-8-fluoro-1-(2-nitrophenyl)-1,2-dihydro[1]benzothieno[2,3-c] pyridin-3(4H)-one]?
A: TGI (MOLT-4): 100 µM; GI50 (SF-295; Homo sapiens, five dose): 0.6 µM; pIC50 (SF-295; Homo sapiens, five dose): 4.98; inhibition at 10 µM (SF-295; [1]): 79.2%; TGI (SF-295; five dose): 100 µM; GI50 (SK-MEL-28; Homo sapiens, five dose): 31.2 µM; pIC50 (SK-MEL-28; Homo sapiens, five dose): 4.18; LC50 (50% lethal concentration) (SK-MEL-28; Homo sapiens, five dose): > 100 µM; inhibition at 10 µM (SK-MEL-28; [1]): -10.6%; TGI (SK-MEL-28; five dose): 100 µM; GI50 (NCI-H460; Homo sapiens, five dose): 0.29 µM; pIC50 (NCI-H460; Homo sapiens, five dose): 6.43; inhibition at 10 µM (NCI-H460; [1]): 11.5%; TGI (NCI-H460; five dose): 100 µM; GI50 (TK-10; Homo sapiens, five dose): 17.7 µM; pIC50 (TK-10; Homo sapiens, five dose): 4.14; inhibition at 10 µM (TK-10; [1]): 58.9%; TGI (TK-10; five dose): 100 µM; GI50 (LOX IMVI; Homo sapiens, five dose): 15.3 µM; pIC50 (LOX IMVI; Homo sapiens, five dose): 4.60; inhibition at 10 µM (LOX IMVI; [1]): 8.64%; TGI (LOX IMVI; five dose): 73.20 µM; GI50 (SF-268; Homo sapiens, five dose): 16.4 µM; pIC50 (SF-268; Homo sapiens, five dose): 4.33; inhibition at 10 µM (SF-268; [1]): 14.4%; TGI (SF-268; five dose): 100 µM; TGI (HCT-15; five dose): 100 µM; GI50 (HCT-15; Homo sapiens, five dose): 11.4 µM; pIC50 (HCT-15; Homo sapiens, five dose): 4.78; inhibition at 10 µM (HCT-15; [1]): 12.3%; GI50 (IGROV1; [2]): 0.004 µM; pIC50 (IGROV1; [2]): 6.75; inhibition at 10 µM (IGROV1; Homo sapiens, IGROV-1, single dose 10^−5 M, read-out: Growth inhibition (%)): 99.7%; TGI (IGROV1; five dose): 100 µM; GI50 (NCI-H226; Homo sapiens, five dose): 0.27 µM; pIC50 (NCI-H226; Homo sapiens, five dose): 6.06; inhibition at 10 µM (NCI-H226; [1]): 31.2%; TGI (NCI-H226; five dose): 100 µM; TGI (HT-29; HT29, five dose): 100 µM; GI50 (HT-29; [3]): 19.6 µM; pIC50 (HT-29; [3]): 4.59; LC50 (concentration killing 50% of cells) (HT-29; [3]): > 100 µM; inhibition at 10 µM (HT-29; Homo sapiens, HT-29, single dose 10^−5 M, read-out: Growth inhibition (%)): 14.7%; GI50 (SK-MEL-5; Homo sapiens, five dose): 13 µM; pIC50 (SK-MEL-5; Homo sapiens, five dose): 4.68; inhibition at 10 µM (SK-MEL-5; [1]): 24.9%; TGI (SK-MEL-5; five dose): 67.60 µM; TGI (HCC-2998; five dose): 94.90 µM; GI50 (HCC-2998; Homo sapiens, five dose): 17.4 µM; pIC50 (HCC-2998; Homo sapiens, five dose): 4.47; inhibition at 10 µM (HCC-2998; [1]): 6.16%; GI50 (M14; Homo sapiens, five dose): 16.3 µM; pIC50 (M14; Homo sapiens, five dose): 4.55; inhibition at 10 µM (M14; [1]): 7.3%; TGI (M14; five dose): 100 µM; GI50 (KM12; Homo sapiens, five dose): 19.9 µM; pIC50 (KM12; Homo sapiens, five dose): 4.49; inhibition at 10 µM (KM12; [1]): 8.58%; TGI (KM12; five dose): 100 µM; GI50 (SW-620; Homo sapiens, five dose): 0.37 µM; pIC50 (SW-620; Homo sapiens, five dose): 6.17; LC50 (50% lethal concentration) (SW-620; Homo sapiens, five dose): > 100 µM; inhibition at 10 µM (SW-620; [1]): 88.1%; TGI (SW-620; five dose): 100 µM; GI50 (EKVX; Homo sapiens, five dose): 2.69 µM; pIC50 (EKVX; Homo sapiens, five dose): 4.86; inhibition at 10 µM (EKVX; [1]): 35.3%; TGI (EKVX; five dose): 100 µM; TGI (786-0; five dose): 100 µM; GI50 (786-0; Homo sapiens, five dose): 37 µM; pIC50 (786-0; Homo sapiens, five dose): 4.11; LC50 (786-0; Homo sapiens, five dose): > 100 µM; inhibition at 10 µM (786-0; [1]): 10%; inhibition at 10 µM (SN12C; Homo sapiens, SN 12 C, single dose 10^−5 M, read-out: Growth inhibition (%)): 20.9%; GI50 (SN12C; Homo sapiens, five dose): 18.6 µM; pIC50 (SN12C; Homo sapiens, five dose): 4.46; TGI (SN12C; five dose): 100 µM; GI50 (NCI-H522; Homo sapiens, five dose): 18.4 µM; pIC50 (NCI-H522; Homo sapiens, five dose): 4.38; inhibition at 10 µM (NCI-H522; [1]): 17.3%; TGI (NCI-H522; five dose): 100 µM; GI50 (NCI-H322M; Homo sapiens, five dose): 7.37 µM; pIC50 (NCI-H322M; Homo sapiens, five dose): 4.63; inhibition at 10 µM (NCI-H322M; [1]): 98%; TGI (NCI-H322M; five dose): 100 µM; GI50 (UACC-62; Homo sapiens, five dose): 0.36 µM; pIC50 (UACC-62; Homo sapiens, five dose): 5.75; inhibition at 10 µM (UACC-62; [1]): 90.6%; TGI (UACC-62; five dose): 47.20 µM; GI50 (ACHN; Homo sapiens, five dose): 15.7 µM; pIC50 (ACHN; Homo sapiens, five dose): 4.53; LC50 (NCI-60 lethal concentration, 50% net cell kill) (ACHN; Homo sapiens, five dose): > 100 µM; inhibition at 10 µM (ACHN; [1]): 34.3%; TGI (ACHN; five dose): 100 µM
